# Test results published in the supplement of paper PMC6045584.
# ± gives the standard deviation of the averaged measurements.
# Assays:
# PLX-4720 = compound: CCCS(=O)(=O)Nc1ccc(F)c(C(=O)c2c[nH]c3ncc(Cl)cc23)c1F [PLX-4720]; assay: surviving fraction relative to DMSO-only wells; higher = less growth inhibition; settings: exposure time: 5 days
# Procedure, shortened: (§1)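 Surviving fraction is CellTiter-Glo luminescence divided by the median of wells given DMSO only. For this, log-phase tumour cell lines went into 384-well plates at 250–500 cells per well and, 24 hours later, into five days of continuous inhibitor exposure at 0.5, 1, 5, 10, 50, 100, 500 and 1000 nM. Lines were screened three times and retained only if replicate Pearson r >0.7 and median Z' >0.3.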
# METHOTREXATE = compound: CN(Cc1cnc2nc(N)nc(N)c2n1)c1ccc(C(=O)N[C@@H](CCC(=O)O)C(=O)O)cc1 [METHOTREXATE]; assay: as above; settings: exposure time: 5 days
# Procedure, shortened: as §1
Test System,surviving fraction (PLX-4720; 0.5 nM),surviving fraction (PLX-4720; 1 nM),surviving fraction (PLX-4720; 5 nM),surviving fraction (PLX-4720; 10 nM),surviving fraction (PLX-4720; 50 nM),surviving fraction (PLX-4720; 100 nM),surviving fraction (PLX-4720; 500 nM),surviving fraction (PLX-4720; 1000 nM),surviving fraction (METHOTREXATE; 0.5 nM),surviving fraction (METHOTREXATE; 1 nM),surviving fraction (METHOTREXATE; 5 nM),surviving fraction (METHOTREXATE; 10 nM),surviving fraction (METHOTREXATE; 50 nM),surviving fraction (METHOTREXATE; 100 nM),surviving fraction (METHOTREXATE; 500 nM),surviving fraction (METHOTREXATE; 1000 nM)
22RV1 PROSTATE,1 ± 0.011,0.966 ± 0.076,0.971 ± 0.032,0.958 ± 0.036,0.936 ± 0.04,0.929 ± 0.053,0.825 ± 0.095,0.872 ± 0.049,1.06 ± 0.075,0.984 ± 0.11,0.946 ± 0.15,0.964 ± 0.12,0.452 ± 0.016,0.325 ± 0.013,0.285 ± 0.097,0.279 ± 0.099
93VU HEADNECK,0.755 ± 0.071,0.813 ± 0.082,0.798 ± 0.044,0.877 ± 0.024,1.08 ± 0.011,1.07 ± 0.081,0.998 ± 0.092,1.02 ± 0.054,1.03 ± 0.099,1.08 ± 0.091,1.16 ± 0.11,1.18 ± 0.063,0.854 ± 0.081,1.02 ± 0.051,0.702 ± 0.049,0.671 ± 0.018
143B BONE,0.979 ± 0.03,0.972 ± 0.023,0.99 ± 0.021,0.968,0.959 ± 0.061,0.986 ± 0.0071,0.855 ± 0.13,0.996 ± 0.028,1.06 ± 0.018,1.04 ± 0.016,1.03 ± 0.041,0.471 ± 0.022,0.379 ± 0.033,0.174 ± 0.014,0.085 ± 0.0071,0.0875 ± 0.016
A549 LUNG,0.904 ± 0.027,0.928 ± 0.017,0.922 ± 0.017,0.922 ± 0.03,0.942 ± 0.012,0.98 ± 0.018,0.975 ± 0.027,1.02 ± 0.047,1.06 ± 0.07,1.06 ± 0.043,1.04 ± 0.023,1.06 ± 0.036,0.237 ± 0.0061,0.219 ± 0.0071,0.213 ± 0.0055,0.218 ± 0.0055
ASKA SYNOVIAL,0.402 ± 0.04,0.905 ± 0.07,0.923 ± 0.041,1 ± 0.096,0.635 ± 0.032,1.21 ± 0.033,1.02 ± 0.077,1.08 ± 0.045,1.13 ± 0.14,1.07 ± 0.067,1.13 ± 0.048,1.08 ± 0.083,1.23 ± 0.094,1.18 ± 0.087,1.19 ± 0.086,1.12 ± 0.09
BT20 BREAST,0.783 ± 0.2,0.849 ± 0.16,0.774 ± 0.065,0.803 ± 0.056,1.07 ± 0.1,1.03 ± 0.19,1.05 ± 0.087,1.12 ± 0.067,1.16 ± 0.083,1.15 ± 0.095,1.12 ± 0.075,1.1 ± 0.087,0.992 ± 0.1,0.995 ± 0.089,0.998 ± 0.021,0.989 ± 0.1
BT549 BREAST,0.855 ± 0.11,0.839 ± 0.092,0.857 ± 0.092,0.902 ± 0.074,1.09 ± 0.036,1.29 ± 0.061,1.19 ± 0.03,1.05 ± 0.15,1.11 ± 0.16,1.04 ± 0.034,1 ± 0.063,1.03 ± 0.11,0.107 ± 0.012,0.044 ± 0.0053,0.0323 ± 0.0055,0.039 ± 0.011
CADOES1 SOFT TISSUE,0.944 ± 0.025,0.935 ± 0.063,0.915 ± 0.051,0.933 ± 0.075,0.999 ± 0.14,0.869 ± 0.034,0.939 ± 0.075,1 ± 0.049,0.973 ± 0.11,1.02 ± 0.14,0.869 ± 0.052,0.672 ± 0.12,0.288 ± 0.013,0.229 ± 0.0093,0.226 ± 0.021,0.242 ± 0.011
CAL51 BREAST,0.926 ± 0.04,0.897 ± 0.026,0.985 ± 0.045,0.939 ± 0.038,0.992 ± 0.027,1.02 ± 0.029,1.04 ± 0.052,1.05 ± 0.04,1.06 ± 0.039,1.02 ± 0.021,1.02 ± 0.035,0.962 ± 0.052,0.243 ± 0.0049,0.142 ± 0.015,0.0995 ± 0.0051,0.09133 ± 0.00076
CAL120 BREAST,0.852 ± 0.027,0.899 ± 0.051,0.904 ± 0.04,0.881 ± 0.037,0.896 ± 0.022,0.946 ± 0.023,0.889 ± 0.071,0.911 ± 0.013,0.961 ± 0.032,0.96 ± 0.086,0.721 ± 0.027,0.31 ± 0.026,0.328 ± 0.0043,0.336 ± 0.0094,0.333 ± 0.0045,0.335 ± 0.012
